Results published in PubChem BioAssay AID1959 (Broad Institute, 2009).
pEC50: −log10 of the molar value. The source made the active and inactive calls.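 Rule for the calls: active = growth-inhibition EC50 no more than tenfold above the top tested dose; inconclusive = flat fit between 30% and 70% inhibition, or unreliable fit; inactive = EC50 more than tenfold above the top tested dose.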

system: E. coli NEB5alpha growth, BacTiter-Glo luminescence, 4 h; assay: Escherichia coli growth inhibition, dose response, counter-screen for MEX-5/POS-1 RNA-binding inhibitor project, luminescence, NEB5alpha (AID 1959);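 note: pUC19-transformed ampicillin-resistant cells grown in LB with ampicillin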

Compound | EC50 | pEC50
Cc1ccc(N2C(=O)NC(=O)/C(=C\c3cc(C)n(-c4cc(C(=O)O)cc(C(=O)O)c4)c3C)C2=O)cc1 | > 11 µM (inactive) | 
COc1cc(/C=N/Nc2nc(=O)[nH]nc2C)cc([N+](=O)[O-])c1O | > 11 µM (inactive) | 
COc1cccc(=O)c2c(C)oc(C)c12 | > 11 µM (inactive) | 
COc1ccc(C2=CC3=C(Br)C(=O)C(C)(OC(=O)c4cccs4)C(=O)C3=CO2)cc1 (centres undefined) | > 11 µM (inactive) | 
COc1ccc(C2C=C(c3ccc(Br)s3)Nc3ncnn32)cc1OC (centres undefined) | > 11 µM (inactive) | 
CC[C@H](C)/C=C(C)/C=C/C1=CC2=C(Cl)C(=O)[C@@](C)(OC(C)=O)C(=O)C2=CO1 | > 11 µM (inactive) | 
CC(C)(C)OC(=O)NCCCC1=CC2=CC(=O)C(C)(OC(=O)c3ccc(Cl)nc3)C(=O)C2=CO1 (centres undefined) | > 11 µM (inactive) | 
CC1C2(C)OC(=N)C(C#N)(C(C)O2)C1(C#N)C#N (centres undefined) | > 11 µM (inactive) | 
COc1ccc2c(c1)S/C(=C\C(=O)c1ccncc1)N2C | > 11 µM (inactive) | 
CC1=Nc2ccccc2/C1=C\c1nc(-c2ccc(F)cc2)oc1O | > 11 µM (inactive) | 
CC1=CC(C)(C)N2C(=O)C3(C(C#N)=C(N)OC4=C3C(=O)CCC4)c3c(C)c(C)cc1c32 (centres undefined) | > 11 µM (inactive) | 
CCCOc1ccc(/C=c2\sc3nc(-c4ccco4)nn3c2=O)cc1OCC | > 11 µM (inactive) | 
CCCCn1c(=O)[nH]c(=O)c2c1nc(-c1ccc(-c3ccccc3Br)o1)n2CCOC | > 11 µM (inactive) | 
CCN(CC)CCN=Cc1c(O)n(CCc2ccccc2)c(=O)[nH]c1=O | > 11 µM (inactive) | 
CC(=O)c1ccc2c(c1)C1C=CCC1C(c1ccncc1)N2 (centres undefined) | > 11 µM (inactive) | 
COc1cc(C2C3CN(C)CC=C3C(C#N)=C(N)C2(C#N)C#N)ccc1OC(C)C (centres undefined) | > 11 µM (inactive) | 
CN(C)c1ccc(/C=N/NC2=NS(=O)(=O)c3ccccc32)cc1 | > 11 µM (inactive) | 
Cc1ccccc1CSCCNC(=S)Nc1ccccc1 | > 11 µM (inactive) | 
Cc1cc(/C=C2\SC(=O)N(C)C2=O)c(C)n1-c1cccc(C(=O)O)c1 | > 11 µM (inactive) | 
Cc1ccccc1N1C(=O)NC(=O)/C(=C\c2cc(C)n(C)c2C)C1=O | > 11 µM (inactive) | 
Cc1cc(/C=C(/C#N)c2nc3ccccc3[nH]2)c(C)n1-c1cc(C(=O)O)cc(C(=O)O)c1 | > 11 µM (inactive) | 
O=C(c1cccs1)c1ccc(-c2cccs2)s1 | > 11 µM (inactive) | 
Oc1c(Br)cc(Br)c(/C=N/n2c(-c3ccccc3)n[nH]c2=S)c1Br | > 11 µM (inactive) | 
Cc1cccn2c(=O)c3cc(C(=O)NC4CCCC4)c(=N)n(CCc4ccccc4)c3nc12 | > 11 µM (inactive) | 

Compound | EC50 | pEC50
Cc1cc(C(=O)N/N=C/c2ccc(-c3cccc(Cl)c3Cl)o2)n[nH]1 | > 11 µM (inactive) | 
COC(=O)[C@@]1(C#N)[C@@H]2C=CC(C(C)=O)=CN2[C@@H](C(N)=O)[C@@H]1c1ccc(F)cc1 | > 11 µM (inactive) | 
O=C1c2ccccc2C(=O)N1CCCc1nc(-c2ccncc2)no1 | > 11 µM (inactive) | 
O=C1NC(=O)C(=Cc2ccc(-c3ccc(S(=O)(=O)N4CCOCC4)cc3)o2)C(=O)N1 | > 11 µM (inactive) | 
CCCCOc1ccc(/C=C2/Sc3ccccc3C2=O)cc1 | > 11 µM (inactive) | 
O=C1NC(=O)[C@@H]2C3c4ccccc4C=CN3[C@H](C(=O)c3cccs3)[C@H]12 (some centres undefined) | > 11 µM (inactive) | 
Cc1cccc2sc(NNC(=O)c3cc(=O)c4ccccc4o3)nc12 | > 11 µM (inactive) | 
CCn1c(C)cc(/C=C2\C(=O)NC(=O)N(c3ccccc3C)C2=O)c1C | > 11 µM (inactive) | 
Cc1c(C(=O)O)cccc1-n1c(C)cc(/C=N/NC(=O)c2cc3ccccc3o2)c1C | > 11 µM (inactive) | 
CCn1c(=N)c(S(=O)(=O)c2ccccc2)cc2c(=O)n3ccccc3nc21 | > 11 µM (inactive) | 
COC(=O)c1cccc(-n2c(CCC(=O)O)ccc2-c2cccs2)c1 | > 11 µM (inactive) | 
ClCc1nc2ccccc2n1Cc1ccccc1 | > 11 µM (inactive) | 
CN1C(=O)/C(=C/c2ccc(N3CCCCCC3)o2)C(=O)NC1=S | > 11 µM (inactive) | 
Cn1ncc2c(NNC(=O)Cc3ccccc3)ncnc21 | > 11 µM (inactive) | 
COc1ccc(/C=C/c2cc(C(F)(F)F)[nH]c(=O)n2)cc1OC | > 11 µM (inactive) | 
Cc1cc(N=Cc2c(O)n(-c3ccc4c(c3)OCO4)c(=O)c3ccccc23)ccn1 | > 11 µM (inactive) | 
CS(=O)(=O)Nc1nc2n(n1)C(c1ccccc1)C=C(c1ccc(Br)cc1)N2 (centres undefined) | > 11 µM (inactive) | 
O=C(c1ccco1)N1CCN(c2ncnc3c(-c4ccc(Cl)cc4)nsc23)CC1 | > 11 µM (inactive) | 
CN(C)C1C(=O)C(C(N)=O)=C(O)C2(O)C(=O)C3=C(O)c4c(O)cccc4C(C)(O)C3C(O)C12 (centres undefined) |  | 5.06
CC(C)COc1ccc(/C=C2/Sc3ccccc3C2=O)cc1 | > 11 µM (inactive) | 
O=C(NNC(=O)c1csc(-c2cccnc2)n1)c1ccccc1 | > 11 µM (inactive) | 
COC(=O)CCC(=O)OC1(C)C(=O)C=C2C=C(c3ccsc3)OC=C2C1=O (centres undefined) | > 11 µM (inactive) | 
CC(=O)NCCNc1ccc([N+](=O)[O-])cc1C#N | > 11 µM (inactive) | 
O=C1NC(=O)N(c2ccccc2F)C(=O)/C1=C/c1cn(CC(=O)N2CCOCC2)c2ccccc12 | > 11 µM (inactive) | 

Compound | EC50 | pEC50
CC(=O)C1=C(c2ccccc2)N(C(C)=O)n2c(C)nnc2S1 | > 11 µM (inactive) | 
Cc1nc(N2CCN(Cc3ccccc3)CC2)c(C#N)c2c1COC(C)(C)C2 | > 11 µM (inactive) | 
O=C(N/N=C/c1cccnc1)c1cc(O)c(O)c(O)c1 | > 11 µM (inactive) | 
Oc1ccc(CCNc2c3ccccc3nc3ccccc23)cc1O | > 11 µM (inactive) | 
O=C(N[C@H]1CP(=O)(Oc2ccccc2)O[C@H](COCc2ccccc2)[C@H]1O)C(Cl)(Cl)Cl (some centres undefined) | > 11 µM (inactive) | 
Cc1ccccc1NC(=O)CN1C(=O)S/C(=C\c2cccn2-c2cccc(C(=O)O)c2)C1=O | > 11 µM (inactive) | 
O=C(Nc1ccccc1F)c1coc(=O)c(Br)c1 | > 11 µM (inactive) | 
COc1ccc(NC(=O)Nc2ccc(OCc3ccccc3)cc2)cn1 | > 11 µM (inactive) | 
C=CCOc1cccc(C2C(C(=O)c3ccc(C)o3)=C(O)C(=O)N2c2nccs2)c1 (centres undefined) | > 11 µM (inactive) | 
Cc1ccc(NC(=O)CN2C(=O)N/C(=C\c3cccn3-c3cccc(C(=O)O)c3)C2=O)cc1 | > 11 µM (inactive) | 
CN(C)c1ccc(/C=C/C(=O)c2cccc(Br)c2)cc1 | > 11 µM (inactive) | 
CCOc1cc(/C=C2\SC(=Nc3ccc(CC)cc3)NC2=O)ccc1OCC(=O)O | > 11 µM (inactive) | 
O=c1[nH]c(=O)n(CC2CCCO2)c(O)c1/C=C1\C=Nc2ccccc21 (centres undefined) | > 11 µM (inactive) | 
Cc1cnc(C(=O)NNC(=O)c2ccc(Br)cc2)cn1 | > 11 µM (inactive) | 
O=c1oc2ccc(Cl)cc2nc1/C=C(\O)c1cccs1 | > 11 µM (inactive) | 
Cc1noc(C)c1S(=O)(=O)NC1CCN(Cc2ccccc2)CC1 | > 11 µM (inactive) | 
O=CN/N=C/c1c(O)ccc2ccccc12 | > 11 µM (inactive) | 
COc1ccc(OC)c(N=Cc2c(O)n(Cc3ccccc3)c(=S)[nH]c2=O)c1 | > 11 µM (inactive) | 
Cc1cc(=O)n2[nH]c(=O)c(N=Nc3ccccc3)c2[nH]1 | > 11 µM (inactive) | 
Clc1cccc(CSc2nc3ccncc3[nH]2)c1 | > 11 µM (inactive) | 
Cc1ccc(/C=N/NC(=O)c2nnn(-c3nonc3N)c2-c2cccs2)cc1 | > 11 µM (inactive) | 
COc1cc(C2C(C#N)=C(N)OC3=C2C(=O)CC(C)(C)C3)c([N+](=O)[O-])cc1OC (centres undefined) | > 11 µM (inactive) | 
O=C(O)c1cc(-n2cccc2)ccc1N1CCOCC1 | > 11 µM (inactive) | 
COc1ccccc1NC(=O)c1sc2nc(Cc3ccccc3)cc(C(F)(F)F)c2c1N | > 11 µM (inactive) | 

Compound | EC50 | pEC50
CCOC(=O)c1cc2c(=O)n3ccccc3nc2n(C(C)C)c1=NC(=O)c1ccncc1 | > 11 µM (inactive) | 
O=C(CC1Nc2ccccc2NC1=O)Nc1cc(Cl)cc(Cl)c1 (centres undefined) | > 11 µM (inactive) | 
O=C(O)c1ccc(-n2cccc2)cc1O | > 11 µM (inactive) | 
Cc1cc(C)nc(NNC2=CC(=O)CC(C)(C)C2)n1 | > 11 µM (inactive) | 
CNC(=O)c1c(NC(=O)c2ccc(S(=O)(=O)N3CCCc4ccccc43)cc2)sc2c1CCN(C)C2 | > 11 µM (inactive) | 
O=C(O)C1OC(Oc2cc3oc(-c4ccccc4)cc(=O)c3c(O)c2O)C(O)C(O)C1O (centres undefined) | > 11 µM (inactive) | 
COc1ccccc1-c1cnn2c(NCc3ccccc3)cc(C)nc12 | > 11 µM (inactive) | 
CC1=NN(C(N)=S)C(=O)C1N=Nc1cccc(C(=O)O)c1 (centres undefined) | > 11 µM (inactive) | 
COc1cccc(F)c1C(=O)NC(=O)Nc1ccc2nc(C)oc2c1 | > 11 µM (inactive) | 
Cc1nc(S/C(=C/c2ccc(-c3ccc(C(=O)O)cc3)o2)C(=O)O)n[nH]1 | > 11 µM (inactive) | 
CS/C(=N\S(=O)(=O)c1cccs1)Nc1cccc(Cl)c1C | > 11 µM (inactive) | 
Cc1ccc(NC(=O)c2sc3nc4c(c(-c5ccco5)c3c2N)CCC4)cc1 | > 11 µM (inactive) | 
COc1ccc2c(c1)C1C=CCC1C(c1cc3c(cc1Br)OCO3)N2 (centres undefined) | > 11 µM (inactive) | 
CCn1c2ccccc2c(=O)c2ccccc21 | > 11 µM (inactive) | 
COc1ccc(C2C(C#N)=C(/N=C/N3CCOCC3)OC3=C2C(=O)CC(C)(C)C3)cc1OC (centres undefined) | > 11 µM (inactive) | 
CCOc1ccc(N2C(=O)/C(=C/c3ccc(C)o3)C(=O)NC2=S)cc1 | > 11 µM (inactive) | 
CCOC(=O)C(C(=O)OCC)c1cc(Br)c2noc3c2c1C(=O)c1ccccc1-3 | > 11 µM (inactive) | 
N#C/C(=C\c1cc(O)c(O)c(O)c1)C(N)=O | > 11 µM (inactive) | 
CC(=O)n1c(C=Nc2ccccc2)c(O)c2ccccc21 | > 11 µM (inactive) | 
Cc1cc(/C=C2/C(=O)NC(=O)N(c3ccc(Br)cc3)C2=O)c(C)n1C | > 11 µM (inactive) | 
O=C(c1ccco1)[C@@H]1[C@@H]2C(=O)N(c3ccccc3)C(=O)[C@@H]2C2c3ccccc3C=CN21 (some centres undefined) | > 11 µM (inactive) | 
Cc1ccc(S(=O)(=O)N2CCOCC2)cc1C(=O)Nc1ccc(S(=O)(=O)Nc2nccs2)cc1 | > 11 µM (inactive) | 
